Test results as given in patent publication US20090246169A1, “INDOLOPYRIDINES AS EG5 KINESIN MODULATORS” (priority 2006, published 2009).

Each compound was assayed on RKO p21 colon adenocarcinoma cells, uninduced (proliferating) (assay: Alamar Blue cell viability assay, RKO p21 uninduced (proliferating)). Conditions: Homo sapiens; anti-proliferative/cytotoxic activity, 72 hours, without Ponasterone A; read-out: −log EC50 [mol/l] RKO p21 uninduced (proliferating) (converted).
Format: cell-based
Protocol: The anti-proliferative/cytotoxic activity of the compounds described herein can be tested on subclones of RKO human colon adenocarcinoma cells (Schmidt et al., Oncogene 19, 2423-2429; 2000) using the Alamar Blue cell viability assay (described in O'Brien et al. Eur J Biochem 267, 5421-5426, 2000). The compounds are dissolved as 10 mM solutions in DMSO and subsequently diluted in semi-logarithmic steps. DMSO dilutions are further diluted 1:100 into Dulbecco's modified Eagle's medium (DMEM) containing 10% fetal calf serum to a final concentration twice as much as the final concentration in the test. RKO subclones are seeded into 96 well flat bottom plates at a density of 4000 cells per well in a volume of 50 μl per well. 24 hours after seeding the 50 μl each of the compound dilutions in DMEM medium are added into each well of the 96 well plate. Each compound dilution is tested as triplicates. Wells containing untreated control cells are filled with 50 μl DMEM medium containing 1% DMSO. The cells are then incubated with the substances for 72 hours at 37° C. in a humidified atmosphere containing 5% carbon dioxide. To determine the viability of the cells, 10 μl of an Alamar Blue solution (Biosource) are added and the fluorescence is measured at an extinction of 544 nm and an emission of 590 nm. For the calculation of the cell viability the emission value from untreated cells is set as 100% viability and the emission rates of treated cells are set in relation to the values of untreated cells. Viabilities are expressed as % values. The Graphpad Prism program is used for the calculation of EC50 values for anti-proliferative/cytotoxic activity out of the obtained dose-response curves.
To determine the cell cycle specific mode of action, subclones of RKO colon adenocarcinoma cells (RKOp21 or RKOp27 as described by Schmidt et al. in Oncogene 19, 2423-2429; 2000) are seeded into 96 well flat bottom plates at a density of 16000 cells per well in a volume of 50 μl per well in DMEM growth medium with 10% FCS containing 10 μM Ponasterone A. 24 hours after seeding the 50 μl each of the compound dilutions in DMEM medium are added into each well of the 96-well plate. Each compound dilution is tested as triplicates. Wells containing untreated control cells are filled with 50 μl DMEM medium containing 1% DMSO. The cells are then incubated with the substances for 72 hours at 37° C. in a humidified atmosphere containing 5% carbon dioxide. To determine the viability of the cells, 10 μl of an Alamar Blue solution (Biosource) are added and the fluorescence is measured at an extinction of 544 nm and an emission of 590 nm. For the calculation of the cell viability the emission value from untreated cells is set as 100% viability and the emission rates of treated cells are set in relation to the values of untreated cells. Viabilities are expressed as % values. The Graphpad Prism program (GraphPad Software, Inc) is used for the calculation of EC50 values out of the obtained dose-response curves. Viability is compared of proliferating cells grown in the absence of the inducer Ponasterone A, versus viability of cells arrested by the expression of ectopic p27Kip1 induced by Ponasterone A.
Representative values for anti-proliferation/cytotoxicity [measured as −log EC50 (mol/l)] determined in the aforementioned assays follow from the following tables B1 and B2, in which the numbers of the compounds correspond to the numbers of the examples.
In the case of COc1ccc2[nH]c3c(c2c1)C[C@@]1(C)C(=O)N(CCCNC2CCC2)C(=O)N1[C@@H]3c1ccccc1 (racemic) [Example 72, (3aSR, 10RS)-2-(3-Cyclo-butylamino-propyl)-6-methoxy-3a-methyl-10-phenyl-3a,4,9,10-tetrahydro-2,9,10a-triaza-cyclopenta[b] fluorene-1,3-dione], the EC50 is reported as no more than 1 µM. With COc1ccc2[nH]c3c(c2c1)C[C@@]1(C)C(=O)N(CCNCC(C)C)C(=O)N1[C@@H]3c1ccccc1 (racemic) [Example 35, (3aSR, 10RS)-2-(2-Isobutyl-amino-ethyl)-6-methoxy-3a-methyl-10-phenyl-3a,4,9,10-tetrahydro-2,9,10a-triaza-cyclopenta[b]fluorene-1,3-dione] the EC50 was no more than 1 µM. Work on CNCCCN1C(=O)N2[C@H](c3ccccc3)c3[nH]c4ccc(OC)cc4c3C[C@@]2(C)C1=O (racemic) [Example 73, (3aSR, 10RS)-6-Methoxy-3a-methyl-2-(3-methylamino-propyl)-10-phenyl-3a,4,9,10-tetrahydro-2,9,10a-triaza-cyclopenta[b]fluorene-1,3-dione] yielded an EC50 of no more than 1 µM. Work on COc1ccc2[nH]c3c(c2c1)C[C@@]1(C)C(=O)N(CCCN2CCCC2)C(=O)N1[C@@H]3c1ccccc1 (racemic) [Example 62, (3aSR, 10RS)-6-Methoxy-3a-methyl-10-phenyl-2-(3-pyrrolidin-1-yl-propyl)-3a,4,9,10-tetrahydro-2,9,10a-triaza-cyclopenta[b]fluorene-1,3-dione] yielded an EC50 of no more than 1 µM. Compound COc1ccc2[nH]c3c(c2c1)C[C@@]1(C)C(=O)N(CCCN2CCCCC2)C(=O)N1[C@@H]3c1ccccc1 (racemic) [Example 65, (3aSR, 10RS)-6-Methoxy-3a-methyl-10-phenyl-2-(3-piperidin-1-yl-propyl)-3a,4,9,10-tetrahydro-2,9,10a-triaza-cyclopenta[b]fluorene-1,3-dione] has an EC50 of no more than 1 µM. COc1ccc2[nH]c3c(c2c1)C[C@@]1(C)C(=O)N(CCCN(C)C)C(=O)N1[C@@H]3c1ccccc1 (racemic) [Example 45, (3aSR, 10RS)-2-(3-Dimethylamino-propyl)-6-methoxy-3a-methyl-10-phenyl-3a,4,9,10-tetrahydro-2,9,10a-triaza-cyclopenta[b] fluorene-1,3-dione] gave an EC50 of no more than 1 µM. COc1ccc2[nH]c3c(c2c1)C[C@@]1(C)C(=O)N(CCCN(C)CCO)C(=O)N1[C@@H]3c1ccccc1 (racemic) [Example 46, (3aSR, 10RS)-2-{3-[(2-Hydroxy-ethyl)-methyl-amino]-propyl}-6-methoxy-3a-methyl-10-phenyl-3a,4,9,10-tetrahydro-2,9,10a-triaza-cyclopenta[b]fluorene-1,3-dione] was tested, and the EC50 was no more than 1 µM. For C#CC(C)NCCN1C(=O)N2[C@H](c3ccccc3)c3[nH]c4ccc(OC)cc4c3C[C@@]2(C)C1=O (stereo partly drawn) [Example 48, (3aSR, 10RS)-6-Methoxy-3a-methyl-2-[2-(R)-1-methyl-prop-2-ynylamino)-ethyl]-10-phenyl-3a,4,9,10-tetrahydro-2,9,10a-triaza-cyclopenta [b]fluorene-1,3-dione and (3aSR, 10RS)-6-Methoxy-3a-methyl-2-[2-(S)-1-methyl-prop-2-ynylamino)-ethyl]-10-phenyl-3a,4,9,10-tetra-hydro-2,9,10a-triaza-cyclo-penta[b]fluorene-1,3-dione], the EC50 was no more than 1 µM. With COc1ccc2[nH]c3c(c2c1)C[C@@]1(C)C(=O)N(CCN2CCC2)C(=O)N1[C@@H]3c1ccccc1 (racemic) [Example 16, (3aSR,10RS)-2-(2-Azetidin-1-yl-ethyl)-6-methoxy-3a-methyl-10-phenyl-3a,4,9,10-tetrahydro-2,9,10a-triaza-cyclopenta[b]fluorene-1,3-dione] the EC50 was no more than 1 µM. Work on COc1ccc2[nH]c3c(c2c1)C[C@@]1(C)C(=O)N(CCN)C(=O)N1[C@@H]3c1ccccc1 (racemic) [Example 13, (3aSR,10RS)-2-(2-Amino-ethyl)-6-methoxy-3a-methyl-10-phenyl-3a,4,9,10-tetrahydro-2,9,10a-triaza-cyclopenta[b]fluorene-1,3-dione] yielded an EC50 of no more than 1 µM. Compound CCN(CCO)CCCN1C(=O)N2[C@H](c3ccccc3)c3[nH]c4ccc(OC)cc4c3C[C@@]2(C)C1=O (racemic) [Example 55, (3aSR, 10RS)-2-{3-[Ethyl-(2-hydroxy-ethyl)-amino]-propyl}-6-methoxy-3a-methyl-10-phenyl-3a,4,9,10-tetrahydro-2,9,10a-triaza-cyclopenta[b]fluorene-1,3-dione] has an EC50 of no more than 1 µM. With C=CCNCCN1C(=O)N2[C@H](c3ccccc3)c3[nH]c4ccc(OC)cc4c3C[C@@]2(C)C1=O (racemic) [Example 28, (3aSR, 10RS)-2-(2-Allyl-amino-ethyl)-6-methoxy-3a-methyl-10-phenyl-3a,4,9,10-tetrahydro-2,9,10a-triaza-cyclopenta[b]fluorene-1,3-dione] the EC50 was no more than 1 µM. Compound COc1ccc2[nH]c3c(c2c1)C[C@@]1(C)C(=O)N(CCCNCC(C)C)C(=O)N1[C@@H]3c1ccccc1 (racemic) [Example 52, (3aSR, 10RS)-2-(3-Isobutylamino-propyl)-6-methoxy-3a-methyl-10-phenyl-3a,4,9,10-tetrahydro-2,9,10a-triaza-cyclopenta[b] fluorene-1,3-dione] has an EC50 of no more than 1 µM. For COc1ccc2[nH]c3c(c2c1)C[C@@]1(C)C(=O)N(CCCN2CCCCCC2)C(=O)N1[C@@H]3c1ccccc1 (racemic) [Example 78, (3aSR, 10RS)-2-(3-Azepan-1-yl-propyl)-6-methoxy-3a-methyl-10-phenyl-3a,4,9,10-tetrahydro-2,9,10a-triaza-cyclopenta[b]fluorene-1,3-dione], the EC50 was no more than 1 µM. In the case of COc1ccc2[nH]c3c(c2c1)C[C@@]1(C)C(=O)N(CCCNCC2CC2)C(=O)N1[C@@H]3c1ccccc1 (racemic) [Example 74, (3aSR, 10RS)-2-[3-(Cyclo-propylmethyl-amino)-propyl]-6-methoxy-3a-methyl-10-phenyl-3a,4,9,10-tetrahydro-2,9,10a-triaza-cyclopenta[b] fluorene-1,3-dione], the EC50 is reported as no more than 1 µM. COc1ccc2[nH]c3c(c2c1)C[C@@]1(C)C(=O)N(CCCN2CCC(C)CC2)C(=O)N1[C@@H]3c1ccccc1 (racemic) [Example 66, (3aSR, 10RS)-6-Methoxy-3a-methyl-2-[3-(4-methyl-piperidin-1-yl)-propyl]-10-phenyl-3a,4,9,10-tetrahydro-2,9,10a-triaza-cyclopenta[b] fluorene-1,3-dione] showed an EC50 of no more than 1 µM. COc1ccc2[nH]c3c(c2c1)C[C@@]1(C)C(=O)N(CCCN2CCN(C)CC2)C(=O)N1[C@@H]3c1ccccc1 (racemic) [Example 68, (3aSR, 10RS)-6-Methoxy-3a-methyl-2-[3-(4-methyl-piperazin-1-yl)-propyl]-10-phenyl-3a,4,9,10-tetrahydro-2,9,10a-triaza-cyclopenta [b]fluorene-1,3-dione] was tested, and the EC50 was no more than 1 µM. With COc1ccc2[nH]c3c(c2c1)C[C@@]1(C)C(=O)N(CCN(C)CCO)C(=O)N1[C@@H]3c1ccccc1 (racemic) [Example 30, (3aSR, 10RS)-2-{2-[(2-Hydroxy-ethyl)-methyl-amino]-ethyl}-6-methoxy-3a-methyl-10-phenyl-3a,4,9,10-tetrahydro-2,9,10a-triaza-cyclopenta[b]fluorene-1,3-dione] the EC50 was no more than 1 µM. Compound COc1ccc2[nH]c3c(c2c1)C[C@@]1(C)C(=O)N(CCN2CCCC2)C(=O)N1[C@@H]3c1ccccc1 (racemic) [Example 3, (3aSR,10RS)-6-Methoxy-3a-methyl-10-phenyl-2-(2-pyrrolidin-1-yl-ethyl)-3a,4,9,10-tetrahydro-2,9,10a-triaza-cyclopenta[b]fluorene-1,3-dione] has an EC50 of no more than 1 µM. Compound COc1ccc2[nH]c3c(c2c1)C[C@@]1(C)C(=O)N(CCCN(C)C(C)C)C(=O)N1[C@@H]3c1ccccc1 (racemic) [Example 59, (3aSR, 10RS)-2-[3-(Isopropyl-methyl-amino)-propyl]-6-methoxy-3a-methyl-10-phenyl-3a,4,9,10-tetra-hydro-2,9,10a-triaza-cyclo-penta[b]fluorene-1,3-dione] has an EC50 of no more than 1 µM.
